Results on three compounds are retold here after ChEMBL document CHEMBL3886883, “Cyclic amines” (2016).

As a reminder, the IC50 is the midpoint of a concentration-inhibition curve.

The test addresses T1, P2X purinoceptor 7 (Homo sapiens, UniProt Q99572).
T1 sequence (Q99572 whole entry): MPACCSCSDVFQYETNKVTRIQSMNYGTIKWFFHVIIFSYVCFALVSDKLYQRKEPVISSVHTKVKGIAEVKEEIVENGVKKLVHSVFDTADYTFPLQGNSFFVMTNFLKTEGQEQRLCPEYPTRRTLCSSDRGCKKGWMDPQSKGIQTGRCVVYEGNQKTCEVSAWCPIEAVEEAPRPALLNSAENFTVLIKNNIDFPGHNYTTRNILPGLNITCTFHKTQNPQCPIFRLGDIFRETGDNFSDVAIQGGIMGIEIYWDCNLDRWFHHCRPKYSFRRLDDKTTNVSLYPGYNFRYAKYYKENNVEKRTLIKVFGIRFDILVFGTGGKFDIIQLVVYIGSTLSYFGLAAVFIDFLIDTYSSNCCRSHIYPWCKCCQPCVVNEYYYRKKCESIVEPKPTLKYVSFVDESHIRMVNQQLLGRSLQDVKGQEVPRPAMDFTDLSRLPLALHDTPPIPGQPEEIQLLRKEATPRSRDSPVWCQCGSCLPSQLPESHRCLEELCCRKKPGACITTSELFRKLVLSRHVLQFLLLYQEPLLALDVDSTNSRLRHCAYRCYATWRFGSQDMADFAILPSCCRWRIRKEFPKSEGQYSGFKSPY
Description: Fluorescent Imaging Plate Reader (FLIPR) Assay: Briefly, 293-human or mouse P2X7 stable cells were incubated in sucrose buffer, pH 7.4 [KCl (5 mM), NaH2PO42H2O (9.6 mM), HEPES (25 mM), sucrose (280 mM), glucose (5 mM), CaCl2 (0.5 mM), and probenecid (0.1425 g in 3 mL 1N NaOH was added for 500 mL solution)] in 384-well plates. 93-rat P2X7 stable cells were incubated in HHPB (pH 7.4) [consisting of Hank's BSS (1X); HEPES (pH 7.4) (20 mM) (Sigma); probenecid (0.710 g/5 mL 1N NaOH) (Sigma); and BSA (0.05%) (Roche) which was added after the pH had been adjusted] in 384-well plates. Fluo-4 NW dye mix (Molecular Probes, Inc., Eugene, Oreg., USA) was prepared in buffer (see manufacturer's instructions). Cell plates were removed from the 37° C. incubator, the media discarded and then 30 μL of dye was added to each well. Plates were placed in the 37° C., non-CO2 incubator for 30 minutes and then room temperature for 30 minutes. Two sets of drug plates were prepared: A) Mixtures of compound plus agonist were prepared as follows, in order to determine close response: BzATP: 11 point ½ log, diluted in buffer, starting from 1 mM. Testing compounds: 11 point ½ log, diluted in 2% DMSO buffer starting from 10 μM. B) Agonist only mixture was prepared with BzATP at a single concentration in buffer (concentration determined by dose response). Compound mixtures (A) were added to assay plates containing cells and placed at room temperature for 30 minutes, then BzATP (B) was added. Fluorescence was read using the Tetra FLIPR® (Molecular Devices, Inc., Sunnyvale, Calif., USA) and IC50 values were calculated by standard methods to determine antagonist activity. It counts as cell-based.
Regarding `COc1ccc(C(CNC(=O)c2cc(C)ccc2Cl)N2CCCCC2)cc1` (stereo not drawn), the IC50 is 0.65 µM.

For `Cc1ccc(Cl)c(C(=O)NCC(c2ccc(F)cc2)N2CCOCC2)c1` (stereo not drawn), the IC50 was 0.021 µM. As for `COc1ccc(C(CNC(=O)c2cc(C)ccc2Cl)N2CCOCC2)cc1` (stereo not drawn), the IC50 is 0.059 µM.
